Assay results as given in publication PMC5531494, “Target specificity, in vivo pharmacokinetics, and efficacy of the putative STAT3 inhibitor LY5 in osteosarcoma, Ewing's sarcoma, and rhabdomyosarcoma” (PLoS ONE, 2017).

Experiments:
[1] = Clinical toxicities in normal dogs; format: in vivo; details: 1 mg/kg, 24 hour PK collection timeframe
Method: LY5 was evaluated in two normal purpose-bred beagle dogs (female 8.8 kg; male 11.2 kg) receiving a single dose of 1mg/kg LY5 IV then orally by gavage 7 days later to establish the PK profile and assess the spectrum of clinical toxicities associated with LY5 administration. The oral dosing was repeated in the fed and fasted state. The starting dose was determined based on allometric scaling from the maximal tolerated dose studies performed in mice. Dogs were washed out for 30 days, and then given a dose of 25 mg in a capsule orally, followed by a 50 mg capsule dose 14 days later. Full PK sampling was performed over 24 hours following each dose of LY5. The dogs received LY5 and were used for the PK analysis but were not euthanized upon conclusion of the study.

[2] = biological target: T1, polo-like kinase 3 (PLK3) (Homo sapiens, UniProt Q9H4B4); test: KINOMESCAN binding, PLK3; details: 5 μM LY5
T1 construct: purchased KINOMESCAN (www.kinomescan.com)
Method: To determine the specificity of STAT blockade, we asked whether LY5 affected the phosphorylation of other family members including STAT1, STAT2, STAT4, and STAT6 [30–32]. […] To further define any potential off-target effects, we profiled the direct (steric) or indirect (allosteric) binding of LY5 to the binding sites of 96 human protein or lipid kinases (KINOMESCAN, www.kinomescan.com).
Supplementary file pone.0181885.s001.pdf: S1 Fig Kinomescan results for LY5. […] At 5 μM LY5 (B), only interaction with PLK3 was identified, mapped S-score (35) = 0.01. (PDF) Click here for additional data file.

K7M2 cells [3] = test: Sulforhodamine B cytotoxicity / cell viability assay; format: cell-based, murine; details: Mus musculus
Method: Murine K7M2 and human MG63.3 OS cells were treated with increasing concentrations of LY5 for 2 hrs or 7 hrs. Western blotting was performed for pSTAT3 and STAT3 as indicated above to confirm inhibition of STAT3 phosphorylation in the cell lines prior to initiation of the PuMA assay. In addition, a sulforhodamine B colorimetric assay was performed to assess the cytotoxicity of LY5 in K7M2 and MG63.3 cells as previously described.
(§1) MG63.3 and K7M2 cell lines were exposed to increasing concentrations of LY5 to determine the IC50 (A). Western blot analysis was performed to determine the dose and duration of LY5 exposure required to inhibit STAT3 phosphorylation (B-C). Serial imaging of fluorescently labeled MG63.3 and K7M2 cells was performed in ex vivo LY5 treated lung sections (D). Metastatic burden was quantified by evaluation of the percent tumor burden (mean normalized fluorescent area). Data are reported as the mean ± standard deviation. In MG 63.3 experiment, p < 0.0001 Kruskal-Wallis test, p < 0.05 10 μM vs control at days 7, 14, and 21, 10 μM vs 1 μM at days 7, 14, and 21, 50 μM vs control at days 7, 14, and 21, and 50 μM vs 10 μM at days 7, 14, and 21 post-test Dunn. In K7M2 experiment, p < 0.0001 Kruskal-Wallis test, p < 0.05 10 μM vs control at days 14 and 21, 10 μM vs 0.1 μM at days 14 and 21, and 10 μM vs 1 μM at days 14 and 21, post-test Dunn.

K7M2 cells [4] = test: Ex vivo pulmonary metastasis assay (PuMA); format: cell-based, murine; details: K7M2, 10 μM LY5 only
Method: GFP-positive K7M2 and MG63.3 cells (3 x 10^5 MG63.3; 5 x 10^5 K7M2) were administered via tail vein injection into mice. Following humane euthanasia, the lungs were insufflated with a culture medium/agarose mixture to a constant hydrostatic pressure of 20 cm H2O and prepared for ex vivo culture as previously described. Lung sections were cultured in complete media containing LY5 (0, 0.1, 1, 10 or 50 μM) on sterile Gelfoam using 6 lung sections per treatment condition. Media was changed every 48 hrs and lung slices were imaged with a fluorescent microscope every 7 days for a total of 21 days.
as §1, with “In K7M2 experiment, p < 0.0001 Kruskal-Wallis test, p < 0.05 10 μM vs control at days 14 and 21, 10 μM vs 0.1 μM at days 14 and 21, and 10 μM vs 1 μM at days 14 and 21, post-test Dunn.” left out

STAT3 [5] = biological target: T2, STAT3 (Homo sapiens, UniProt P40763); test: STAT3 phosphorylation in OS-1 PDX tumors; format: in vivo, mice; parameters: from tissue; host or cells: OS-17-luc lung metastases and OS-1 subcutaneous PDX tumours in C.B-17 scid mice; details: 40 mg/kg twice daily, tumors harvested 2 hrs after final drug administration
Method: To further examine the efficacy of LY5, we administered LY5 using subcutaneous PDX models of RMS (RH10 and RH36) and OS (OS-17 and OS-1). RH10, RH36 and OS-1 were derived from tissue explants, therefore no corresponding cell lines exist. Tumors were harvested 2 hrs after final drug administration. […] In addition, STAT3 phosphorylation was not observed in control or treated tumor derived from OS-17, and inhibition of STAT3 phosphorylation was not observed in OS-1 PDX models treated with 40 mg/kg twice daily.

STAT3 [6] = biological target: T2, STAT3; test: pSTAT3 in pulmonary metastatic lesions, IHC and Western blotting; format: in vivo, mice; parameters: from tissue; host or cells: OS-17-luc lung metastases and OS-1 subcutaneous PDX tumours in C.B-17 scid mice; details: 20 mg/kg LY5 daily for 30 days; immunohistochemistry and Western blotting
Method: The ability of LY5 to inhibit pulmonary metastases was evaluated using a murine model of OS pulmonary metastasis. 8-week-old C.B-17 scid -/- female mice (Envigo, Madison, WI) received IV inoculation with 10^6 OS-17-luc cells expressing a luciferase reporter gene. OS-17-luc cells were generated by infecting OS-17 wild type cells with lentivirus containing the firefly luciferase under a CMV promoter (Cellomics Technology, Hallethorpe, MD) and selected with 0.5 ug/mL puromycin (Thermo Fisher Scientific, Waltham, MA). Beginning 24 hrs after inoculation, mice received vehicle (n = 10) or 20 mg/kg LY5 once daily via oral gavage (n = 9, one mouse died within 24 hrs after cell inoculation). LY5 was prepared by diluting a 40 mg/mL solution/slurry with a 50% propylene glycol/1% Tween 20 in water vehicle immediately before administration. Mice were treated with LY5 for 30 days, and bioluminescent imaging (after IP luciferin administration) was performed to determine pulmonary metastatic disease load. To investigate the pharmacodynamics (PD) effects of LY5, pSTAT3 (p-Tyr705, ab76315, Abcam) and total STAT3 (ab119352, Abcam) were evaluated in pulmonary metastatic lesions using IHC in lung samples from mice euthanized 24 hrs after their last dose.
(A-B) IHC staining of lung metastasis from mice treated with LY5. The metastatic tumor sections were stained with pSTAT3 or hematoxylin and eosin. […]

T2 sequence (P40763 whole entry): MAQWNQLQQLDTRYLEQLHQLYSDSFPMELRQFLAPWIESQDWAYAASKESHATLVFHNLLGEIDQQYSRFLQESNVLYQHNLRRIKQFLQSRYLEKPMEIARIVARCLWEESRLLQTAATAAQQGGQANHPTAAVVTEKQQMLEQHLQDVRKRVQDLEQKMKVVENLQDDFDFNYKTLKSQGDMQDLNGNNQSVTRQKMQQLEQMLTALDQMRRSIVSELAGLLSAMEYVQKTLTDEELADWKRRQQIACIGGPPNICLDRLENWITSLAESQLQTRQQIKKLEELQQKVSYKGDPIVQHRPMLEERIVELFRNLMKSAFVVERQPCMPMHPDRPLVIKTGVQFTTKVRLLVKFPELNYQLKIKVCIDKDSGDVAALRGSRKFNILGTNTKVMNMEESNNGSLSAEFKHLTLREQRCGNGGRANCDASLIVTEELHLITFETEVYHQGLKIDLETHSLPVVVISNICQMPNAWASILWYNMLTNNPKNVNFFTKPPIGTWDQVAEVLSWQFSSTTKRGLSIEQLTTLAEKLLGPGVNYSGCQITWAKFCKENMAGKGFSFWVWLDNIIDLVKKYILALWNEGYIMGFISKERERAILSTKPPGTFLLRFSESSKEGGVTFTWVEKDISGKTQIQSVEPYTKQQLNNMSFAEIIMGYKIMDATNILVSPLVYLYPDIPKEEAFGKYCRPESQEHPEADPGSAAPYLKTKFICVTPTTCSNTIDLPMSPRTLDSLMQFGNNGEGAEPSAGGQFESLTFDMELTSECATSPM
T1 sequence (Q9H4B4 whole entry): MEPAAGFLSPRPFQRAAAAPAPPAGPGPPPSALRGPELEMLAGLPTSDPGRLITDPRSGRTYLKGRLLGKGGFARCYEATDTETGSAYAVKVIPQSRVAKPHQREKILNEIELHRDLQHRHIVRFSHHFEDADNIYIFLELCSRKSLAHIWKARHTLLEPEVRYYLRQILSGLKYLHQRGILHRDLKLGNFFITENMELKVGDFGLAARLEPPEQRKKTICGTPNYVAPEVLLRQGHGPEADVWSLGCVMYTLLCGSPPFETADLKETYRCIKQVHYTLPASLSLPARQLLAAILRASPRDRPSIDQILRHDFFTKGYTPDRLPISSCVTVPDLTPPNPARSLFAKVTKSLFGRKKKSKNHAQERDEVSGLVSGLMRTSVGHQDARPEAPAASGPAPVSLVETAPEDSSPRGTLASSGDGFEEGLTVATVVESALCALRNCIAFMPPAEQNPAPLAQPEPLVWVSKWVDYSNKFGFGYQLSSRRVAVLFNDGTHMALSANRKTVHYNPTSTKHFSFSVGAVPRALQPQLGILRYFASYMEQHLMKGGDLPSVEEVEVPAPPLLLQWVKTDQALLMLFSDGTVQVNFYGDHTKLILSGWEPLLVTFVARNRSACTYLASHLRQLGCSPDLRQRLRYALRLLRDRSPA

NS(=O)(=O)c1cccc2c1C(=O)C=C(Nc1cccnc1)C2=O [LY5, 5,8-dioxo-6-(pyridin-3-ylamino)-5,8-dihydronaphthalene-1-sulfonamide]
tolerability / acute clinical toxicities [1]: well tolerated without apparent acute clinical toxicities
binding to PLK3 [2]: binding
IC50 (K7M2 cells [3]): 1.5 µM
tumor burden in PuMA (K7M2 cells [4]): reduction
inhibition of STAT3 phosphorylation in tumors (STAT3 [5]): not observed
STAT3 phosphorylation in pulmonary metastatic lesions (STAT3 [6]): inhibited STAT3 phosphorylation
